Some test systems named below: 786-0; HCT-116; HCT-15; IGROV-1; K562; KM12; NCI-H522; OVCAR-4; RXF 393; SF-295; SK-MEL-5; SNB-75; SR; UACC-62; CAKI-1; HOP-62; LOX IMVI; RPMI-8226; SK-OV-3.
Common to all, as to assay: DTP human tumour cell line panel, 48 h

This note sets out measurements from ChEMBL document CHEMBL1201862, “PubChem BioAssay data set” (2004).

Molecules are shown by their SMILES.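 Cultured in 96-well plates, cells were exposed to test compound for 48 hours across five concentrations. GI50 = concentration required for 50% inhibition of growth.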 The source made the active and inactive calls. Cut-off read from the data, not from the text of the source: active = GI50 up to about 1.1 µM and inactive = higher.

The GI50 is the concentration giving 50% growth inhibition. Take `O=C1C(=C2CCCC2)CCC1CN1CCCCC1` (stereo unspecified): the GI50 in the test with 786-0 is 13.6 µM (inactive); in the test with HCT-116, 18.6 µM (inactive); in the test with HCT-15, 16.3 µM; with IGROV-1, 18.4 µM (inactive); in the test on K562 it was 16.3 µM (inactive); in the test with KM12, 18.6 µM (inactive). Besides, the GI50 with NCI-H522 is 1.77 µM (inactive); with OVCAR-4, 16.5 µM (inactive); with RXF 393, 16.4 µM (inactive); with SF-295 it was > 100 µM (inactive); with SK-MEL-5 it was 18.2 µM (inactive); in the test with SNB-75 it was 0.489 µM (active). Also, the GI50 in the test with SR was 20.7 µM (inactive); in the test on UACC-62, 18.5 µM (inactive).
In the case of `CC1=C(C(=O)NCc2ccccc2)C(c2ccco2)C(C(=O)NCc2ccccc2)=C(C)N1`, the GI50 with CAKI-1 is 57.5 µM (inactive); in the test with HCT-116, 71.4 µM (inactive); with HCT-15 it was 52.8 µM; in the test on HOP-62, 65.3 µM (inactive); in the test with IGROV-1, > 100 µM (inactive); in the test with K562, 30.3 µM (inactive). For the same compound, the GI50 in the test on KM12 is 33.8 µM (inactive); in the test with LOX IMVI it was 77.3 µM (inactive); with NCI-H522 it was 85.1 µM (inactive); with OVCAR-4 it was 55.7 µM (inactive); with RPMI-8226, > 100 µM (inactive); in the test with RXF 393, 66.8 µM (inactive). Also, the GI50 in the test with SF-295 is 56.9 µM (inactive); in the test on SK-MEL-5, > 100 µM (inactive); with SK-OV-3, > 100 µM (inactive); in the test on SNB-75 it was > 100 µM (inactive); in the test with SR, > 100 µM (inactive); with UACC-62, 17.3 µM (inactive).
Consider `CCCCCC(/C=C/c1ncccc1OCCCCCC(=O)O)=N\NC1=NCCN1`, for which the GI50 is > 100 µM (inactive) in the test with CAKI-1; 43.4 µM (inactive) in the test with HCT-116; over 100 µM in the test with HCT-15; > 100 µM (inactive) in the test on HOP-62; > 100 µM (inactive) with IGROV-1; 60.3 µM (inactive) in the test with K562. Also, the GI50 is 54.3 µM (inactive) with KM12; 74 µM (inactive) in the test with LOX IMVI; 50.8 µM (inactive) in the test on NCI-H522; 78.7 µM (inactive) in the test with OVCAR-4; 29.4 µM (inactive) with RPMI-8226; > 100 µM (inactive) in the test with RXF 393. Further, the GI50 in the test with SF-295 was > 100 µM (inactive); in the test with SK-OV-3, > 100 µM (inactive); in the test on SNB-75, 40.2 µM (inactive); with SR, 39.4 µM (inactive); in the test on UACC-62, 44.1 µM (inactive).
As to `NC1C(O)C(O)C(CO)OC1n1cc(F)c(=O)[nH]c1=O` (stereo unspecified), the GI50 is > 100 µM (inactive) in the test on CAKI-1; > 100 µM (inactive) in the test on HCT-116; over 100 µM with HCT-15; > 100 µM (inactive) in the test on KM12; > 100 µM (inactive) in the test with LOX IMVI; > 100 µM (inactive) with NCI-H522. The GI50 in the test on OVCAR-4, in the test on RPMI-8226, in the test with RXF 393, in the test with SF-295, in the test with SK-MEL-5 and in the test on SK-OV-3 was > 100 µM (inactive) each time. Also, the GI50 in the test on SNB-75 was 91.2 µM (inactive); in the test with SR, > 100 µM (inactive).
For the compound `COc1ccc(C(c2ccc(C(C)C)cc(=O)c2O)c2ccc3cccnc3c2O)cc1` (stereo unspecified), the GI50 was 1.63 µM (inactive) in the test with 786-0; 1.79 µM (inactive) in the test on CAKI-1; 0.318 µM (active) in the test on HCT-116; 0.449 µM in the test with HCT-15; 0.387 µM (active) in the test with HOP-62; 0.425 µM (active) in the test with IGROV-1. For the same compound, the GI50 is 0.399 µM (active) with K562; 1.45 µM (inactive) with KM12; 0.499 µM (active) with LOX IMVI; 1.8 µM (inactive) in the test with NCI-H522; 2.88 µM (inactive) in the test on OVCAR-4; 1.97 µM (inactive) in the test with RPMI-8226. Besides, the GI50 is 0.337 µM (active) in the test with SF-295; 0.507 µM (active) in the test on SK-MEL-5; 2.3 µM (inactive) in the test on SK-OV-3; 0.155 µM (active) with SNB-75; 1 µM (active) in the test with SR; 0.735 µM (active) with UACC-62.
